Measurements: patent publication US9801850B2, “Antibacterial agent” (OSAKA UNIVERSITY, priority 2009, dated 2017)
≈ marks a conversion by molar mass, not a printed value.

Experiments:
[1] = tested on: Pseudomonas aeruginosa ATCC7700; test: Antibacterial spectrum MIC (Table 7); assay type: cell-based
Description: (§1) Methicillin-susceptible Staphylococcus aureus (MSSA) NCTC8325 and methicillin-resistant Staphylococcus aureus (MRSA) ATCC43300 were used as bacteria. The bacteria of each type were cultured using Mueller-Hinton Broth (MH-broth, Difco) as a medium. Then, the minimum inhibitory concentration (MIC) of each of the EGCG derivatives was measured by a broth microdilution method in accordance with the Clinical and Laboratory Standards Institute (CLSI) guidelines (hereinafter the same).
(§2) First, each of the EGCG derivatives was dissolved in 100% dimethyl sulfoxide (DMSO, Wako Pure Chemical Industries, Ltd.) so that the concentration thereof became 5120 μg/ml. The resultant solution was diluted with DMSO or sterile distilled water so as to prepare two-fold dilution series of antibacterial agent solutions. […] Each of these antibacterial agent solutions was dispensed to wells of a 96-well plate. The concentration of the EGCG derivative in the antibacterial agent solution dispensed to the wells was set to be 10 times as high as the final concentration. On the other hand, the bacteria were cultured in the MH-broth at 37° C. overnight, and the thus-obtained pre-culture solution was diluted with a new MH-broth so that the concentration thereof in the MH-broth became 10^−4 (10^4-fold dilution), thus preparing a bacterial culture solution of about 1×10^5 CFU/ml (CFU: Colony Forming Unit, the number of viable cells). The bacterial culture solution was further added to each well, and the mixture was cultured at 37° C. for 18 hours. The ratio (volume ratio) between the antibacterial agent solution and the bacterial culture solution added to each well was set to 1:9 (the antibacterial agent solution:the bacterial culture solution), and the volume of the mixture of them per well was set to 100 μl in total. The final concentration of the EGCG derivative in the mixture was set to 8 μg/ml to 512 μg/ml, and the number of viable cells in the mixture was set to about 1×10^5 CFU/ml. Then, after the completion of the culture, the MIC was determined. Also, the turbidity (OD600 nm) was measured using a plate reader so as to identify minor differences.
(§3) Regarding the respective type strains shown in Tables 7 and 8 below, the MIC measurement was performed using the antibacterial agent solutions of Example 2 in the same manner as described in Section (2) of Example 1, except for the following. The antibacterial agent solutions were prepared by dissolving the EGCG derivatives of Example 2 in 100% DMSO and then diluting the resultant mixtures with sterile distilled water. The respective strains were derived from ATCC or NCTC. As Moraxella catarrhalis and Aspergillus fumigatus, clinical isolates thereof without an acquired resistance mechanism were used. For nutrient-rich bacteria, namely, Streptococcus pneumoniae ATCC49619, Streptococcus pyogenes ATCC19615, Streptococcus agalactiae ATCC13813, Moraxella catarrhalis, and Haemophilis influenzae ATCC49766, Strepto Haemo supplement (Eiken Chemical Co., Ltd.) was added to media for culturing them. The MIC measurement with respect to fungi was carried out by a broth microdilution method using a RPMI1640/MOPS (pH 7.0) medium in accordance with CLSI guidelines. About 2×10^3 cells/ml of fungi were inoculated to the medium. After the culture at 35° C. for 24 to 48 hours, the MIC was determined. Also, regarding the antibacterial agent solution of Comparative Example 2, the MIC was measured in the same manner.

[2] = tested on: Proteus vulgaris ATCC13315; test: Antibacterial spectrum MIC (Table 7); assay type: cell-based
Description: as §1, §2, §3

MRSA ATCC43300 = test: Membrane damaging properties, SYTOX Green fluorescence (Example 4); assay type: cell-based, Staphylococcus aureus; settings: for fluorescence intensity ratio of SYTOX Green (control PBS = 1): 37° C., 15 minutes, EGCG derivative 4-32, EGCG 8-128, NISIN 1-8 μg/ml, FIG. 3
Description: As an antibacterial agent, the EGCG-C16 prepared in Example 1 was used in Example 4; EGCG was used in Comparative Example 4; and membrane-damaging peptide NISIN (MP Biomedicals) was used in a reference example. Antibacterial agent solutions of EGCG-C16 and EGCG were prepared by dissolving them in DMSO so as to achieve top concentrations, respectively. An antibacterial agent solution of the other antibacterial agent was prepared by dissolving it in PBS and diluted with PBS as appropriate. The influence of DMSO used for dissolving the antibacterial agents also was considered.
MSSA ATCC25923 and MRSA ATCC43300 were subjected to shaking culture in MH-broths (Difco) until they reached a late stage in the exponential growth phase. The thus-obtained culture solutions were each centrifuged at 7000 rpm for 10 minutes, and bacterial cells that had settled were suspended in PBS. The suspension of the bacterial cells was added to wells of a 384 black plate, and each of the antibacterial agent solutions was further added thereto and mixed. The resultant mixture was incubated at 37° C. for 15 minutes. Subsequently, a dead cell-staining dye (trade name “SYTOX Green”, LONZA) was mixed in each well so that the concentration thereof became 10 μmol/l, and the resultant mixture was incubated at 37° C. for 10 minutes. The final concentrations of the respective antibacterial agents were as follows: 4, 8, 16, and 32 μg/ml for the EGCG derivative; 8, 16, 32, 64, and 128 μg/ml for EGCG; and 1, 2, 4, and 8 μg/ml for NISIN. […] On the other hand, as a control, the fluorescence intensity was measured in the same manner, except that PBS or 10% DMSO was added instead of the antibacterial agent solutions. Then, regarding each of the MSSA and MRSA, the ratio of the fluorescence intensity when each of the agents was added was calculated assuming that the fluorescence intensity obtained in the control (PBS) was 1.

Compound: O=C(O[C@@H]1Cc2c(O)cc(O)cc2O[C@@H]1c1cc(O)c(O)c(O)c1)c1cc(O)c(O)c(O)c1 [EGCG, Epigallocatechin gallate, reference compound]
- MIC [1]: 64 µg/mL (≈ 140 µM)
- MIC [2]: 64 µg/mL (≈ 140 µM)
- fluorescence intensity ratio of SYTOX Green (control PBS = 1) (MRSA ATCC43300): smaller than 1

Compound: EGCG-linolate [EGCG-C18DE]
- MIC [2]: 32 µg/mL

Compound: EGCG-palmitate [EGCG-C16]
- fluorescence intensity ratio of SYTOX Green (control PBS = 1) (MRSA ATCC43300): very high fluorescence intensity ratio
- cell membrane-damaging action at high concentration (SYTOX Green) (MRSA ATCC43300; EGCG-C16 at 64 μg/ml): tendency for this action of EGCG-C16 to become weak

Compound: EGCG-stearate [EGCG-C18]
- MIC [1]: 32 µg/mL
